These results are taken from patent publication US10787423B2, “Piperazine and piperidine derivatives, their synthesis and use thereof in inhibiting VDAC oligomerization, apoptosis and mitochondria dysfunction” (THE NATIONAL INSTITUTE FOR BIOTECHNOLOGY IN THE NEGEV LTD., priority 2015, dated 2020).

The subject of assay [1] is dopaminergic neurons. In words: MPTP-induced Parkinson-like disease mouse model, brain immunofluorescence. Format: in vivo, C57BL/6N male mice. To be noted: MPTP 20 mg/kg IP 5 days; 20 mg/kg in drinking water from day 3. How it is done:
The Experimental protocols were approved by the Institutional Animal Care and Use Committee. Briefly, C57BL/6N male mice 3-months old were injected IP 3 times/week with vehicle (saline) as control. Parkinsonism was induced by repetitive intraperitoneal injection of 20 mg/kg 1-methyl-4-phenyl-1,2,3,6-tetrahydropyridine hydrochloride (MPTP), Sigma, Israel) in saline, for 5 consecutive days. Group 3 was injected with MPTP and at day 3 of MPTP treatment it was subjected to compound of Formula 3 (VBIT-12) 20 mg/kg in drinking water.
Brains from the scarified mice were analyzed for the pathophysiological features of PD-like mouse models as induced by MPTP and the effect of VBIT-12 on the dopaminergic neurons (DN) was analyzed. Fixed brains were subjected to coronal sections (5 μm thickness) including the Substantia nigra pars compacta (SNc), ventral tegmental area (VTA) and Substantia nigra pars reticular (SNR) (see FIG. 25B) and used for immunofluorescence (IF) (FIG. 25C). Evaluation of dopaminergic neuron degeneration was monitored using anti-Tyrosine hydroxylase (TH) antibodies, which is expressed in dopaminergic neurons.
This decrease was prevented by VBIT-12, as reflected by the increase of the number of cells stained with TH relative to the MPTP-treated group not subjected to VBIT-12.
Sections were also subjected for staining with anti-VDAC1 antibodies (FIG. 25D). […]

Assay [2] concerns the target VDAC1 (Homo sapiens, UniProt P21796). The assay can be described thus: Selenite-induced VDAC1 oligomerization in HeLa cells, EGS cross-linking. Format: cell-based. Also noted: endogenous in cells; host or cells: HeLa. To be noted: 22 h with selenite 8 μM and increasing concentrations. Here is the method:
Appropriate test cells (2.5-3 mg/ml) in PBS, were harvested after the treatment and incubated with the cross-linking reagent EGS at a ratio of 100-300 μM for sample of 2-3 mg protein/ml concentration (pH 8.3) for 15 minutes. Protein concentration was determined according to Lowry assay. Samples (60-80 μg protein) were subjected to SDS-PAGE by a standard technique and immunoblotting was performed using anti-VDAC1 antibodies. Gels were electro-transferred onto nitrocellulose membranes for immuno-staining. The membranes were incubated with a blocking solution containing 5% non-fat dry milk and 0.1% Tween-20 in Tris-buffered saline, followed by incubation with monoclonal anti-VDAC1, anti-Cytochrome c, anti-AIF or anti-actin antibodies. Membranes were then incubated with HRP-conjugated anti-mouse or anti-rabbit IgG (1:10,000), serving as secondary antibodies. Antibody labeling was detected by chemiluminescence. […] Quantitative analysis of immuno-reactive VDAC1 dimer, trimer and multimer bands was performed using FUSION-FX (Vilber Lourmat, France).
Cells (2.5 mg/ml) were washed with and resuspended in PBS, pH 8.3 and incubated with membrane-permeable cross-linker EGS (250 μM) at 30° C. for 15 min and then subjected to SDS-PAGE and immunoblotting using anti-VDAC1 antibodies. […] Cell death was analyzed using propidium iodide (PI) staining and flow cytometry.

In assay [3] the test system is Cyto c release from mitochondria. In words: Selenite-induced Cytochrome c release from mitochondria in HEK-293 cells. To be noted: Homo sapiens, HEK293, compound 2 h then selenite 15 μM 4 h, means±SD (n=3). Format: cell-based. Here is the method: One of the ways cell apoptosis is activated is by release of Cytochrome c (Cyto c) from the mitochondria into cytosol. […] Cyto c released to the cytosol may be analyzed by immunoblotting using Cyto c-specific antibodies.
Cells treated with apoptosis inducers in the absence or presence of the tested compounds were harvested, washed twice with PBS, pH 7.4 and gently resuspended at 6 mg/ml in ice-cold buffer (100 mM KCl, 2.5 mM MgCl2, 250 mM sucrose, 20 mM HEPES/KOH pH 7.5, 0.2 mM EDTA, 1 mM dithiothreitol, 1 μg/ml leupeptin, […] and 0.1 mM PMSF) containing 0.025% digitonin and incubated for 10 min on ice. Samples were centrifuged at 10,000×g (relative centrifugal force—RCF) at 4° C. for 5 min to obtain supernatants (cytosolic extracts free of mitochondria) and pellet (fraction that contains mitochondria). Cytochrome c released to the cytosol was analyzed by immunoblotting using Cytochrome c-specific antibodies. Anti-VDAC1 and anti-GAPDH antibodies were used to verify that the cytosolic extracts are mitochondria-free.
c. Cytochrome c (Cyto c) release was determined as described above in Methods (Cytochrome c release from mitochondria). Briefly, to assess Cyto c release, cells were incubated on ice for 10 min with 0.025% digitonin, centrifuged, and the pellet (mitochondria—Mito) and supernatants (cytosol—Cytos) were subjected to SDS-PAGE and immunoblotting, using anti-Cyto c, antibodies. Anti-VDAC1 and anti-GAPDH antibodies were used to verify that the cytosolic extracts are mitochondria-free. The results of Cyto c release from the mitochondria as induced by selenite are presented as immunoblots, with the cytosolic and mitochondrial fractions confirmed by immunoblotting of GAPDH (glyceraldehyde-3-phosphate dehydrogenase) and VDAC1, respectively, in the FIG. 15d. The data are presented as percent inhibition. The results shown correspond to means±SD (n=3). The closed circle (●) indicates VBIT-4 (compound of Formula 1), the open circle (◯) indicates compound of Formula 10 (AKOS-022), and an open square (□) indicates VBIT-3 (compound of Formula 2).
d. […]

Sequence of VDAC1 (P21796 whole entry): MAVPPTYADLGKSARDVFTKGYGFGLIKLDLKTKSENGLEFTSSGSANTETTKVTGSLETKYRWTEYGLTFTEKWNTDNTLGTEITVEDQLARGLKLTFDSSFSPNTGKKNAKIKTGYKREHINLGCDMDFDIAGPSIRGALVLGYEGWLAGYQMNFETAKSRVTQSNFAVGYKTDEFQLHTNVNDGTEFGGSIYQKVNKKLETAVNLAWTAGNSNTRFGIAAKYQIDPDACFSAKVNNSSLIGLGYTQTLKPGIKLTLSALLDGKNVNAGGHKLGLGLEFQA

For the compound `O=C(O)CNC(=O)C1(Nc2ccccc2)CCN(Cc2cccc3ccccc23)CC1` [Formula 3], in assay [1], the “VDAC1 levels in dopaminergic neurons (anti-VDAC1 staining)” value is listed as “decreased” and the “dopaminergic neurons in SNc (TH staining)” value is listed as “protected against neuronal loss”. Besides, the “selenite-induced VDAC1 oligomerization” value in assay [2] is given as “Inhibited”.
What is called IC50 is the concentration at which inhibition is half-maximal. Low values mean higher potency, high ones lower potency. Regarding `O=C(CC(CO)N1CCN(c2ccc(OC(F)(F)F)cc2)CC1)Nc1ccc(Cl)cc1` (racemic) [Formula 1, N-(4-chlorophenyl)-4-hydroxy-3-(4-(4-(trifluoromethoxy)phenyl)-piperazin-1-yl)butanamide], half-maximal inhibition in assay [3] (IC50) was put at 1800 ± 240 nM.
